Results published in the supplement of paper PMC10307832.

What was measured:
Experiment in all cases: relative viability (nuclei count vs DMSO), 5 days (fraction); higher = more cells survive
[1] = compound: CN(c1ncccc1CNc1nc(Nc2ccc3c(c2)CC(=O)N3)ncc1C(F)(F)F)S(C)(=O)=O
Summary of the method: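 After an overnight hold at 37 °C, lung cancer cell lines in 1536-well plates were pinned with five library-drug doses (not always all listed), each √10 from the next, on vehicle-anchored plates. The cells stayed 5 days without fresh medium, then a one-step fix, permeabilisation and Hoechst stain preceded 4× imaging and MetaXpress nuclear counts. A plate passed only with control CV under 25% and at least one doubling. Viability is the median, over plates, of treated-well nuclei relative to vehicle-well nuclei.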

[2] = compound: CN(c1ncccc1CNc1nc(Nc2ccc3c(c2)CC(=O)N3)ncc1C(F)(F)F)S(C)(=O)=O + CC(=O)Nc1cccc(-n2c(=O)n(C3CC3)c(=O)c3c(Nc4ccc(I)cc4F)n(C)c(=O)c(C)c32)c1 [Trametinib] (partner 0.02 µM)
Summary of the method: (§1)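 Each reported value is a median over duplicate plates. It expresses relative viability: treated-well nuclei count divided by vehicle-well nuclei count. Lung cancer cell lines in 1536-well plates were dosed by pin tool a day after seeding, alone with one drug or with a fixed anchor-drug dose plus five library-drug doses (not always all listed) in √10 steps, and nuclei were counted after 5 days.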

[3] = compound: CN(c1ncccc1CNc1nc(Nc2ccc3c(c2)CC(=O)N3)ncc1C(F)(F)F)S(C)(=O)=O + Cc1cc(Nc2cc(N3CCN(C)CC3)nc(Sc3ccc(NC(=O)C4CC4)cc3)n2)n[nH]1 [Tozasertib] (partner 0.1 µM)
Summary of the method: as §1

[4] = compound: CN(c1ncccc1CNc1nc(Nc2ccc3c(c2)CC(=O)N3)ncc1C(F)(F)F)S(C)(=O)=O + NC(=O)Nc1cc(-c2cccc(F)c2)sc1C(=O)N[C@H]1CCCNC1 [AZD7762] (partner 0.2 µM)
Summary of the method: as §1

Row | Cell Line | relative viability ([1]; 0.01 µM) | relative viability ([1]; 0.03162 µM) | relative viability ([1]; 0.1 µM) | relative viability ([1]; 0.3162 µM) | relative viability ([1]; 1 µM) | relative viability ([2]; first compound 0.01 µM) | relative viability ([2]; first compound 0.03162 µM) | relative viability ([2]; first compound 0.1 µM) | relative viability ([2]; first compound 0.3162 µM) | relative viability ([2]; first compound 1 µM) | relative viability ([3]; first compound 0.01 µM) | relative viability ([3]; first compound 0.03162 µM) | relative viability ([3]; first compound 0.1 µM) | relative viability ([3]; first compound 0.3162 µM) | relative viability ([3]; first compound 1 µM) | relative viability ([4]; first compound 0.01 µM) | relative viability ([4]; first compound 0.03162 µM) | relative viability ([4]; first compound 0.1 µM) | relative viability ([4]; first compound 0.3162 µM) | relative viability ([4]; first compound 1 µM)
1 | NCI-H1755 | 1.05 | 1.05 | 0.956 | 0.922 | 0.938 | 0.766 | 0.833 | 0.786 | 0.758 | 0.733 | 0.519 | 0.533 | 0.593 | 0.472 | 0.61 | 0.585 | 0.398 | 0.488 | 0.502 | 0.437
2 | NCI-H2087 | 1.01 | 1.21 | 0.974 | 1.05 | 1.06 | 0.137 | 0.233 | 0.199 | 0.196 | 0.224 | 0.224 | 0.238 | 0.236 | 0.293 | 0.207 | 1.28 | 1.3 | 1.32 | 1.35 | 1.2
3 | NCI-H2228 | 1.01 | 1.23 | 1.23 | 1.01 | 0.921 | 0.553 | 0.81 | 0.473 | 0.384 | 0.483 | 0.271 | 0.243 | 0.249 | 0.239 | 0.207 |  |  |  |  | 
4 | NCI-H727 | 1 | 0.949 | 0.87 | 1.02 | 0.79 | 0.386 | 0.364 | 0.404 | 0.424 | 0.333 | 0.675 | 0.549 | 0.571 | 0.543 | 0.52 | 0.595 | 0.555 | 0.447 | 0.842 | 0.69
5 | NCI-H650 | 1.03 | 1 | 0.825 | 0.905 | 0.802 | 1.02 | 1.01 | 0.994 | 1.02 | 0.88 | 0.713 | 0.712 | 0.637 | 0.622 | 0.608 | 0.909 | 1.08 | 0.822 | 0.948 | 0.995
6 | NCI-H520 | 1.04 | 1.2 | 1.03 | 1.17 | 1.18 | 0.714 | 0.666 | 0.646 | 0.7 | 0.705 | 0.485 | 0.474 | 0.467 | 0.546 | 0.429 |  |  |  |  | 
7 | EBC-1 | 1.03 | 1.09 | 0.989 | 0.937 | 0.776 |  |  |  |  |  |  |  |  |  |  |  |  |  |  | 
8 | NCI-H661 | 1.08 | 1.05 | 0.89 | 0.988 | 0.968 | 0.549 | 0.729 | 0.577 | 0.615 | 0.608 | 0.294 | 0.334 | 0.361 | 0.372 | 0.353 |  |  |  |  | 
9 | NCI-H1299 | 1.02 | 1.04 | 1.04 | 0.986 | 1.01 |  |  |  |  |  |  |  |  |  |  |  |  |  |  | 
10 | SK-LU-1 | 1.04 | 1.15 | 0.993 | 1.02 | 0.908 | 0.479 | 0.556 | 0.489 | 0.449 | 0.45 | 0.339 | 0.308 | 0.307 | 0.294 | 0.262 |  |  |  |  | 
11 | COR-L23 | 1.01 | 1.1 | 0.981 | 1 | 0.8 | 0.563 | 0.66 | 0.57 | 0.605 | 0.516 | 0.184 | 0.195 | 0.186 | 0.146 | 0.129 |  |  |  |  | 
12 | NCI-H1650 | 0.924 | 0.961 | 0.947 | 0.904 | 0.886 | 0.647 | 0.587 | 0.582 | 0.57 | 0.483 | 0.497 | 0.359 | 0.429 | 0.323 | 0.269 |  |  |  |  | 
13 | IA-LM | 0.899 | 1.11 | 0.912 | 0.823 | 0.805 |  |  |  |  |  |  |  |  |  |  |  |  |  |  | 
14 | NCI-H2009 | 1.07 | 1.03 | 0.965 | 0.961 | 0.982 | 0.25 | 0.263 | 0.246 | 0.29 | 0.286 | 0.631 | 0.696 | 0.744 | 0.693 | 0.625 |  |  |  |  | 
15 | NCI-H1563 | 1 | 0.962 | 0.947 | 0.808 | 0.938 |  |  |  |  |  |  |  |  |  |  |  |  |  |  | 
16 | SK-MES-1 | 1.01 | 1.06 | 0.954 | 0.971 | 0.832 | 0.562 | 0.532 | 0.558 | 0.57 | 0.513 | 0.896 | 0.923 | 0.852 | 0.836 | 0.47 |  |  |  |  | 
17 | UMC-11 | 0.961 | 0.966 | 0.993 | 0.963 | 0.861 | 0.762 | 0.761 | 0.794 | 0.72 | 0.539 | 0.198 | 0.184 | 0.187 | 0.181 | 0.206 |  |  |  |  | 
18 | ABC-1 | 0.947 | 0.818 | 0.926 | 0.899 | 0.879 |  |  |  |  |  | 0.173 | 0.161 | 0.158 | 0.137 | 0.172 | 0.838 | 0.86 | 0.825 | 0.803 | 1.08
19 | SW 1573 | 0.996 | 1.12 | 0.974 | 0.922 | 0.944 | 0.568 | 0.567 | 0.531 | 0.636 | 0.449 | 0.166 | 0.198 | 0.188 | 0.201 | 0.16 |  |  |  |  | 
20 | NCI-H1792 | 0.925 | 0.983 | 0.888 | 0.975 | 0.992 | 0.407 | 0.632 | 0.433 | 0.594 | 0.42 |  |  |  |  |  | 0.721 | 0.822 | 0.674 | 0.722 | 0.755
21 | NCI-H2023 | 1.06 | 1.19 | 0.787 | 0.797 | 0.892 | 0.52 | 0.539 | 0.6 | 0.426 | 0.52 | 0.377 | 0.403 | 0.368 | 0.299 | 0.229 |  |  |  |  | 
22 | COR-L 105 | 1.04 | 0.955 | 0.945 | 0.874 | 0.92 | 0.459 | 0.419 | 0.453 | 0.479 | 0.445 | 0.365 | 0.322 | 0.341 | 0.399 | 0.247 |  |  |  |  | 
